Consider 11 compounds from patent US20140235587A1, “SUBSTITUTED PYRAZOLES AS SPHINGOSINE RECEPTOR MODULATORS” (Allergan, Inc., priority 2013, published 2014).

Each structure is given as a SMILES string.

T1 sequence (P21453 whole entry): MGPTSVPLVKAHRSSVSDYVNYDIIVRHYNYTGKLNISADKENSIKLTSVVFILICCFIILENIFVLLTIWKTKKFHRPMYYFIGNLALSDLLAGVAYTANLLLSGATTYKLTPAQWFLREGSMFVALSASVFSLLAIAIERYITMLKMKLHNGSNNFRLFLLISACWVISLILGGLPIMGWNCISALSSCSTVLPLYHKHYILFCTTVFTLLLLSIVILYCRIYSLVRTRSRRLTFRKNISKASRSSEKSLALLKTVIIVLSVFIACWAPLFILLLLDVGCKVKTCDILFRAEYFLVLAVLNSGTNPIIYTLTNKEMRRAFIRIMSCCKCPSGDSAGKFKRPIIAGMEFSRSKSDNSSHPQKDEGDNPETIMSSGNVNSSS

The assay addresses T1, human S1P1 receptor (Homo sapiens, UniProt P21453).
T1 construct: expressed in transfected cells; membranes used
Put plainly: GTP γ35S binding assay for S1P1 activity. The assay is classed as biochemical. Conditions: membranes of cells stably expressing S1P1; test compounds 0.08 to 5,000 nM; 30 min at 25° C.; read-out: S1P1 EC50 (Activity potency: S1P1 receptor from GTP γ35S). The protocol:
Compounds were tested for S1P1 activity using the GTP γ^35S binding assay. These compounds may be assessed for their ability to activate or block activation of the human S1P1 receptor in cells stably expressing the S1P1 receptor. GTP γ^35S binding was measured in the medium containing (mM) HEPES 25, pH 7.4, MgCl2 10, NaCl 100, dithitothreitol 0.5, digitonin 0.003%, 0.2 nM GTP γ^35S, and 5 μg membrane protein in a volume of 150 μl. Test compounds were included in the concentration range from 0.08 to 5,000 nM unless indicated otherwise. Membranes were incubated with 100 μM 5′-adenylylimmidodiphosphate for 30 min, and subsequently with 10 μM GDP for 10 min on ice. Drug solutions and membrane were mixed, and then reactions were initiated by adding GTP γ^35S and continued for 30 min at 25° C. Reaction mixtures were filtered over Whatman GF/B filters under vacuum, and washed three times with 3 mL of ice-cold buffer (HEPES 25, pH7.4, MgCl2 10 and NaCl 100). Filters were dried and mixed with scintillant, and counted for ^35S activity using a β-counter. Agonist-induced GTP γ^35S binding was obtained by subtracting that in the absence of agonist. Binding data were analyzed using a non-linear regression method. In case of antagonist assay, the reaction mixture contained 10 nM S1P in the presence of test antagonist at concentrations ranging from 0.08 to 5000 nM.
Background: Binding of GTPγS marks nucleotide exchange on a G protein.
As to `CCc1cc(-c2noc(C3=NN(CC)C(c4ccccc4)C3)n2)ccc1CNCCC(=O)O` (centres unmarked) [Compound 11, 3-({2-ethyl-4-[5-(1-ethyl-5-phenyl-4,5-dihydro-1H-pyrazol-3-yl)-1,2,4-oxadiazol-3-yl]benzyl}amino)propanoic acid], the concentration giving a half-maximal response (EC50) amounted to 0.021 µM.

As to `CCN1N=C(c2nc(-c3ccc(CNCCC(=O)O)cc3F)no2)CC1c1ccccc1` (centres unmarked) [Compound 9, 3-({4-[5-(1-ethyl-5-phenyl-4,5-dihydro-1H-pyrazol-3-yl)-1,2,4-oxadiazol-3-yl]-3-fluorobenzyl}amino)propanoic acid], the EC50 came to 0.049 µM.

Regarding `CCN1N=C(c2nc(-c3ccc(CNCCCP(=O)(O)O)cc3F)no2)CC1c1ccccc1` (centres unmarked) [Compound 8, [3-({4-[5-(1-ethyl-5-phenyl-4,5-dihydro-1H-pyrazol-3-yl)-1,2,4-oxadiazol-3-yl]-3-fluorobenzyl}amino)propyl]phosphonic acid], the concentration for a half-maximal effect (EC50) stood at 0.011 µM.

For `CCCN1N=C(c2nc(-c3ccc(CNCCC(=O)O)cc3)no2)CC1c1ccccc1` (centres unmarked) [Compound 12, 3-({4-[5-(5-phenyl-1-propyl-4,5-dihydro-1H-pyrazol-3-yl)-1,2,4-oxadiazol-3-yl]benzyl}amino)propanoic acid], the EC50 is 0.065 µM.

With `CCN1N=C(c2nc(-c3ccc(CNCCCP(=O)(O)O)cc3)no2)CC1c1ccccc1` (centres unmarked) [Compound 4, [3-({4-[5-(1-ethyl-5-phenyl-4,5-dihydro-1H-pyrazol-3-yl)-1,2,4-oxadiazol-3-yl]benzyl}amino)propyl]phosphonic acid], the EC50 came out at 0.025 µM.

On to `CCc1cc(-c2noc(C3=NN(CC)C(c4ccccc4)C3)n2)ccc1CNCCCP(=O)(O)O` (centres unmarked) [Compound 10, [3-({2-ethyl-4-[5-(1-ethyl-5-phenyl-4,5-dihydro-1H-pyrazol-3-yl)-1,2,4-oxadiazol-3-yl]benzyl}amino)propyl]phosphonic acid], for which the EC50 amounted to 0.0026 µM.

Regarding `CN1N=C(c2nc(-c3ccc(CNCCCP(=O)(O)O)cc3)no2)CC1c1ccccc1` (centres unmarked) [Compound 2, [3-({4-[5-(1-methyl-5-phenyl-4,5-dihydro-1H-pyrazol-3-yl)-1,2,4-oxadiazol-3-yl]benzyl}amino)propyl]phosphonic acid], the EC50 came out at 0.0065 µM.

For `CCN1N=C(c2nc(-c3ccc(CNCCC(=O)O)cc3)no2)CC1c1ccccc1` (centres unmarked) [Compound 5, 3-({4-[5-(1-ethyl-5-phenyl-4,5-dihydro-1H-pyrazol-3-yl)-1,2,4-oxadiazol-3-yl]benzyl}amino)propanoic acid], the EC50 was 0.274 µM.

For `CCCN1N=C(c2nc(-c3ccc(CNCCCP(=O)(O)O)cc3)no2)CC1c1ccccc1` (centres unmarked) [Compound 1, [3-({4-[5-(5-phenyl-1-propyl-4,5-dihydro-1H-pyrazol-3-yl)-1,2,4-oxadiazol-3-yl]benzyl}amino)propyl]phosphonic acid], the EC50 came out at 0.018 µM.

In the case of `CCN1N=C(c2nc(-c3cc(F)c(CNCCCP(=O)(O)O)c(F)c3)no2)CC1c1ccccc1` (centres unmarked) [Compound 6, [3-({4-[5-(1-ethyl-5-phenyl-4,5-dihydro-1H-pyrazol-3-yl)-1,2,4-oxadiazol-3-yl]-2,6-difluorobenzyl}amino)propyl]phosphonic acid], the EC50 turned out to be 0.0054 µM.

On to `CCN1N=C(c2nc(-c3cc(F)c(CNCCC(=O)O)c(F)c3)no2)CC1c1ccccc1` (centres unmarked) [Compound 7, 3-({4-[5-(1-ethyl-5-phenyl-4,5-dihydro-1H-pyrazol-3-yl)-1,2,4-oxadiazol-3-yl]-2,6-difluorobenzyl}amino)propanoic acid], for which the half-maximal effective concentration (EC50) is 0.042 µM.

A word on the EC50: it is the concentration needed to bring the measured effect to its halfway point.
